The source of these data is patent US4731363A, “Thromboxane synthase inhibitors as insulin lowering agents and antiobesity agents” (priority 1986, dated 1988).

Assay [1] concerns isolated perfused rat pancreas. Nature of the assay: Insulin secretion by isolated perfused rat pancreas. On the set-up: key: insulin AUC ratio: 1st glucose pulse / 2nd pulse with compound. Conditions: 100 μM; 16.7 mM glucose; control 1.0 ± 0.04 (n = 5). The procedure:
Determination of Insulin-Secretory Activity in the Isolated Perfused Rat Pancreas
Pancreata were obtained from young adult female Charles River rats weighing from 200-300 g. The animals were anaesthesized with sodium pentobarbitol (45 mg/kg), injected intraperitoneally, and the pancreas with its intact vasculature was removed and connected to an extracorporeal perfusion apparatus.
The basic perfusion solution contained: 133 mM NaCl, 4.4 mM KCl, 2.5 mM MgSO4, 2.4 mM Ca gluconate, 1.5 mM KH2 PO4, 29.4 mM NaHCO3, 4% dextran and 0.2% bovine serum albumin and glucose as discussed below. The perfusion flow rate was kept constant at 4 ml/min. After a 15-20 min equilibration period, the experimental protocol was begun. The pancreatic effluent was collected in either one or four-minute fractions.
The perfusion was run in the following sequence:
30 min 16.7 mM glucose-internal control
30 min 16.7 mM glucose and test compound
5 min 20 mM arginine-to check pancreas viability
Test compounds were dissolved in 90% ethanol to a concentration of 25 mM and then diluted in the perfusion buffer to the desired concentration. The perfusion effluent was collected in one or four min fractions-the samples were checked immediately, aliquoted for submission to radioimmunoassay and stored at -20° C. until the time of assay. The radioimmunoassay of insulin was carried out by a back-titration method using a pure rat insulin standard.
To assess the inhibitory activity of the test compounds, an inhibition index was calculated. The inhibition index is derived by comparing the insulin secretion response from treated versus nontreated pancreas preparations. For each preparation, a ratio of insulin secretion was calculated from the area under the insulin secretion curve of the first pulse of 16.7 mM glucose divided by the area under the curve of the second pulse of 16.7 mM glucose containing compound.

For assay [2], the system named is obese Zucker rats. Nature of the assay: Antiobesity activity in vivo in obese Zucker rats. On the set-up: species or system rat. The note with it: 16 to 18 days; for Body Weight Gain: treated minus control. Here is the method: Determination of Antiobesity Activity
Thromboxane synthase inhibitors were evaluated for antiobesity activity in vivo. Body weight, food intake and circulating insulin levels were monitored during periods of drug treatment. Analysis of carcass composition was performed at study termination.
Animals, Diets and Drug Administration
Lean and obese male and female Zucker rats bred at Hoffmann-La Roche Inc. (Nutley, NJ) were kept in wire-bottomed individual cages in light (12 hr dark and light cycles beginning at 6 p.m. and 6 a.m., respectively) and temperature-controlled (22°) rooms. All rats were fed chow diet (Ralston Purina Co., St. Louis, MO) ad libitum until one to three weeks before the start of drug treatment, at which time they were trained to consume a high glucose low fat (1% corn oil) diet which is herein referred to as G-70:1% CO. Following the one to three-week training period on G-70:1% CO, the average daily food intake was calculated, and the rats were weighed and divided into groups of four to seven rats each.
The control animals continued to eat the G-70:1% CO diet ad libitum, and the experimental groups were given G-70:1% CO diet containing drug (also fed ad libitum). The amount of drug added to the diet of each experimental group was based on calculations of food consumed per kg body weight using data collected at the end of the training period. […] The period of drug treatment ranged from 16 to 18 days as noted in the legends to the tables and graph. Food intake and body weight were recorded either daily or twice a week throughout the duration of the study. The amount of drug administered was calculated from the food intake per kg body weight for each experimental group. Body weight data are reported as the difference between the body weight gains of control and drug-treated animals. Food intake and insulin data are reported as percent of control.
^a Average duration of treatment was 16 to 18 days.
^b Body weight gain was computed by taking the difference between the
weight gain of treated and control rats.

`CC(=O)c1ccc(-n2ccnc2)cc1` [1-[4-(1H--imidazol-1-yl)phenyl]ethanone, 1-[4-(1H-imidazol-1-yl)phenyl]ethanone]: the “Insulin Secretion Inhibition Index” value in assay [1] is reported as 2. The “Food Consumption” value is listed as 82 ± 3 % of control in assay [2] (60 mg/kg in diet, P ≤ 0.05); 84 ± 1 % of control in assay [2] (87 mg/kg in diet, P ≤ 0.05); 74 ± 1 % of control in assay [2] (113 mg/kg in diet, P ≤ 0.05). Also, the Insulin in assay [2] (60 mg/kg in diet, not marked significant) was 66 ± 16 % of control; in assay [2] (87 mg/kg in diet, P ≤ 0.05), 32 ± 5 % of control; in assay [2] (113 mg/kg in diet, P ≤ 0.05), 24 ± 1 % of control. Also, the “Body Weight Gain” value in assay [2] (60 mg/kg in diet, P ≤ 0.05) is reported as -25 g; in assay [2] (87 mg/kg in diet, P ≤ 0.05), -32 g; in assay [2] (113 mg/kg in diet, P ≤ 0.05), -74 g.
